# From US10874631B2, “Altertoxin II as a selective inhibitor of Ewing family of tumor cells” (priority 2016, dated 2020)
# Assays:
# Format in all cases: cell-based
# [1] = test system: Ewing sarcoma cells; test: Panel of 5 pediatric cancer cell lines, selective cytotoxicity; settings: 5 types of solid pediatric cancers
# [2] = test system: Ewing sarcoma cell lines; test: alamar blue panel, selectivity Ewing sarcoma vs rhabdomyosarcoma cell lines; settings: alamar blue assay, mean IC50; 6 Ewing sarcoma vs 6 rhabdomyosarcoma cell lines
# Protocol: FIG. 3A-3B. (A) The effects of altertoxin II were evaluated using the SRB assay in 6 Ewing sarcoma cell lines as compared to 4 other pediatric solid tumor cells lines. n≥3 independent experiments. […]
# The effects of altertoxin II were studied in a larger panel of cell lines and the GI50, the concentration that causes 50% inhibition of cell growth, and the TGI, the concentration that caused total growth inhibition, were determined using the sulforhodamine b (SRB assay). The mean GI50 values shown graphically in FIG. 3A. The IC50, the concentration that causes 50% inhibition of cell proliferation, values were determined in a second panel of Ewing sarcoma and rhabdomyosarcoma cell lines using the altar blue assay and these values are presented in Table 2 and the mean in […].
# [3] = test system: A204 rhabdomyosarcoma cells; test: PARP cleavage immunoblot (apoptosis); settings: 100 nM and 1 μM, 18 hours
# Protocol: (§1) FIG. 4A-4B. Altertoxin II selectively induces PARP cleavage in EWS cell lines. Immunoblotting for total and cleaved PARP. (A) Two Ewing sarcoma (EWS) cell lines, RD-ES and SK-ES-1, were treated with 100 nM altertoxin II (ATX) for the indicated amounts of time. Whole-cell lysates were prepared and separated by SDS-PAGE. (B) The EWS cell line SK-ES-1 and rhabdomysosarcoma cell line A204 were treated with the indicated concentrations of ATX for 18 hours, lysed and separated by SDS-PAGE.
# (§2) The ability of altertoxin II to initiate cell death via apoptosis, as measured by PARP cleavage, was evaluated in two Ewing sarcoma cells lines, SK-ES-1 and RD-ES. […] A range of altertoxin II concentrations when then evaluated in SK-ES-1 Ewing sarcoma cells as compared to A204 rhabdomyosarcoma cells.
# [4] = test system: RD-ES cells; test: PARP cleavage immunoblot (apoptosis); settings: 100 nM
# Protocol: as §1, §2
# [5] = test system: SK-ES-1 cells; test: PARP cleavage immunoblot (apoptosis)
# Protocol: as §1, §2
# [6] = test system: 4 Ewing sarcoma cell lines, including SK-ES-1 cells; test: Cell cycle distribution by flow cytometry; settings: each of 4 Ewing sarcoma lines
# Protocol: FIG. 5A-5B. Altertoxin II causes accumulation of SK-ES-1 Ewing sarcoma cells in the S-phase of the cell cycle. Cell cycle analysis of SK-ES-1 cells by flow cytometry. (A) Histogram of DNA content after treatment with two different concentrations of ATX for 18 hours. (B) quantification of cells in each cell cycle phase.
# The effects of altertoxin II on cell cycle distribution were evaluated in 4 Ewing sarcoma cell lines using flow cytometry.
# [7] = test system: RD-ES cells; test: G1 arrest with CDK4/6 inhibitor and SRB concentration-response; settings: RD-ES pre-treated with LSN2813542 (100 nM); SRB assay
# Protocol: FIG. 6. Concentration-response curves for altertoxin II (ATX) with and without pre-treatment with the CDK4/6 inhibitor LSN2813542 (100 nM) using the SRB assay, n=3.
# An experiment was designed to evaluate whether the effects of altertoxin II in Ewing sarcoma cells required cell cycle transition. RD-ES cells were arrested in the G1 phase of the cell cycle using the CDK4/6 inhibitor LSN2813542. LSN2813542 (100 nM) had no effect on RD-ES cell viability, but caused greater than 85% of the cells to arrest in G1 for at least 48 h. The arrested cells were then treated with altertoxin II and a concentration-response curve generated.
# [8] = test system: A673 Ewing sarcoma cells; test: γH2AX immunofluorescence / high-content imaging
# Protocol: (§3) FIG. 7A-7B. Altertoxin II (ATXII) selectively induces γH2AX foci in A673 Ewing sarcoma cells. (A) A673 cells were treated for 24 h with 100 nM altertoxin II and serine 139 phosphorylation of γH2AX evaluated by indirect immunofluorescence techniques. (B) High-content imaging and image analysis were used to construct concentration-response curves for nuclear γH2AX intensity in A673 and Rh30 rhabdomyosarcoma cells after treatment with altertoxin II for 6 h.
# (§4) Studies were conducted to test whether altertoxin II initiates DNA damage in Ewing sarcoma cells because of the well-known sensitivity of these cells to DNA damage and prior reports of altertoxin II-induced DNA damage in other mammalian cells (Fleck, S. C. et al., Toxicol Lett, 214, 27-32, 2012). […] Consistent with these measures of DNA damage altertoxin II.
# [9] = test system: Rh30 rhabdomyosarcoma cells; test: γH2AX high-content imaging
# Protocol: as §3, §4
# [10] = test system: TC-32 cells; test: R-loop marker S9.6 immunofluorescence; settings: TC-32 nuclei, 24 h
# Protocol: FIG. 8A-8B. The effects of 10 and 100 nM altertoxin II (ATXII) on 53BP1 foci were evaluated following a 6 h treatment of A673 cells by indirect immunofluorescence. (B) Immunofluorescence of R-loop marker S9.6 in TC-32 cells 24 h after ATXII treatment. Arrows indicate R-loops within nuclei.
# Multiple investigators have shown that Ewing sarcoma cells undergo replication stress and R-loop accumulation.
# [11] = test system: A204 rhabdomyosarcoma cells; test: DNA damage response immunoblot (Chk1); settings: concentrations up to 1 μM
# Protocol: (§5) FIG. 9A-9B. Altertoxin II causes phosphorylation of CHK1 and 2 and p53 in Ewing sarcoma cells. Ewing sarcoma cells, A673, RD-ES, SK-ES-1, or rhabdomyosarcoma A204 cells were treated with altertoxin II at the concentrations indicated for 6 h (A) or 24 h (B) and whole-cell lysates prepared and proteins separated by SDS-PAGE. These samples were analyzed by immunoblotting for total and phosphorylated Chk1 and 2 and p53 (A).
# (§6) Downstream activation of DNA damage response proteins by altertoxin II was subsequently evaluated.
# [12] = test system: SK-ES-1 Ewing sarcoma cells; test: DNA damage response immunoblot (Chk1); settings: 100 nM and 1 μM, 24 h
# Protocol: as §5, §6
# [13] = test system: Rh30 cells; test: Conditioned media effect on cell growth, SRB assay; settings: media from TC-32 cells treated with 100 nM for 6 h, vs media from Rh30 cells
# Protocol: FIG. 10. Effects of ATXII-conditioned media on Rh30 cell growth. TC-32 or Rh30 cells were treated with 100 nM ATXII for 6 h, the media added to Rh30 cells and cell growth determined with the SRB assay.
# An experiment was conducted to test this possibility. TC-32 Ewing sarcoma and Rh30 rhabdomyosarcoma cells were treated with 100 nM ATX for 6 h and the conditioned media was then applied to the resistant Rh30 cells. […] Differences in the altertoxin II concentration were measured by LC/MS in media from TC-32 and HepG2 hepatocellular carcinoma cells.
smiles,measurement,setting,value
O=C1CC[C@]2(O)c3c(ccc(O)c31)-c1ccc(O)c3c1[C@H]2[C@H]1O[C@H]1C3=O [altertoxin II],selective cytotoxic activity against Ewing sarcoma cells,[1],"potent, Ewing sarcoma-specific effects"
same,selectivity of Ewing sarcoma cell lines vs rhabdomyosarcoma cell lines,[2],89 fold
same,apoptosis (PARP cleavage),[3],not the rhabdomyosarcoma cells
same,time to appearance of cleaved PARP,[4],≤ 17 h
same,apoptosis (PARP cleavage),"[5]; 100 nM and 1 μM, 18 hours",cause apoptosis
same,time to appearance of cleaved PARP,"[5]; 100 nM, seen at 7 and 17 hours",≤ 7 h
same,cell cycle distribution,[6],Concentration-dependent S-phase arrest
same,increase in total growth inhibition concentration (TGI) after G1 arrest,[7],28 fold
same,"nuclear γH2AX, high-content imaging","[8]; 30 nM, 6 h",caused an increase in γH2AX
same,H2AX serine 139 phosphorylation (γH2AX),"[8]; 100 nM, within 6 h",rapidly induced H2AX serine 139 phosphorylation
same,γH2AX foci,"[9]; 10 μM, 24 h exposure",did initiate γH2AX foci
same,γH2AX foci,"[9]; concentrations up to 1 μM, 6 or 24 h",no γH2AX foci were detected
same,R-loop formation (S9.6 marker),[10],increased formation of R-loops
same,Chk1 phosphorylation,[11],Chk1 phosphorylation was not observed
same,Chk1 phosphorylation,[12],Chk1 phosphorylation was also observed
same,activity of conditioned media against Rh30 cells,[13],substantially higher activity
